The record followed here is the supplement of paper PMC10307832.

Assay in all cases: relative viability (nuclei count vs DMSO), 5 days (fraction); higher = more cells survive
Compound in the experiment “Vemurafenib + Pictilisib”: CCCS(=O)(=O)Nc1ccc(F)c(C(=O)c2c[nH]c3ncc(-c4ccc(Cl)cc4)cc23)c1F [Vemurafenib] + CS(=O)(=O)N1CCN(Cc2cc3nc(-c4cccc5[nH]ncc45)nc(N4CCOCC4)c3s2)CC1 [Pictilisib] (partner 1 µM)
The procedure, abridged: (§1)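 Values are medians from duplicate plates. Each reflects relative viability, defined as the nuclei count of treated wells over that of vehicle wells. Lung cancer cell lines in 1536-well plates were pin-tool dosed one day after seeding with one drug alone or with a fixed anchor-drug dose plus five library-drug doses (not always all listed) in √10 steps, then fixed, stained and imaged at 4× after 5 days.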

Compound in the experiment “Vemurafenib + Pemetrexed”: CCCS(=O)(=O)Nc1ccc(F)c(C(=O)c2c[nH]c3ncc(-c4ccc(Cl)cc4)cc23)c1F [Vemurafenib] + Nc1nc2[nH]cc(CCc3ccc(C(=O)N[C@@H](CCC(=O)O)C(=O)O)cc3)c2c(=O)[nH]1 [Pemetrexed] (partner 0.2 µM)
An outline of the steps: as §1

Compound in the experiment “OSI-027 + Luminespib”: COc1cccc2cc(-c3nc([C@H]4CC[C@H](C(=O)O)CC4)n4ncnc(N)c34)[nH]c12 [OSI-027] + CCNC(=O)c1noc(-c2cc(C(C)C)c(O)cc2O)c1-c1ccc(CN2CCOCC2)cc1 [Luminespib] (partner 0.01 µM)
The procedure, abridged: as §1

Compound in the experiment “Alpelisib + Foretinib”: Cc1nc(NC(=O)N2CCC[C@H]2C(N)=O)sc1-c1ccnc(C(C)(C)C(F)(F)F)c1 [Alpelisib] + COc1cc2c(Oc3ccc(NC(=O)C4(C(=O)Nc5ccc(F)cc5)CC4)cc3F)ccnc2cc1OCCCN1CCOCC1 [Foretinib] (partner 0.25 µM)
An outline of the steps:
as §1

In the case of NCI-H2085, the relative viability with Vemurafenib + Pictilisib (first compound 0.03162 µM) was 0.421; in the experiment with Vemurafenib + Pictilisib (first compound 0.1 µM), 0.458; in the experiment with Vemurafenib + Pictilisib (first compound 0.3162 µM) it was 0.664; in the experiment with Vemurafenib + Pictilisib (first compound 1 µM) it was 0.416; with Vemurafenib + Pemetrexed (first compound 0.03162 µM), 0.764; with Vemurafenib + Pemetrexed (first compound 0.1 µM) it was 0.6. Moreover, the relative viability with Vemurafenib + Pemetrexed (first compound 0.3162 µM) came out at 0.585; in the experiment with Vemurafenib + Pemetrexed (first compound 1 µM), 1.04; with OSI-027 + Luminespib (first compound 0.01 µM), 0.647; with OSI-027 + Luminespib (first compound 0.03162 µM) it was 0.437; with OSI-027 + Luminespib (first compound 0.1 µM), 0.439; in the experiment with OSI-027 + Luminespib (first compound 0.3162 µM), 0.341. The relative viability in the experiment with OSI-027 + Luminespib (first compound 1 µM) was found to be 0.231; in the experiment with Alpelisib + Foretinib (first compound 0.04 µM), 0.93; in the experiment with Alpelisib + Foretinib (first compound 0.1265 µM), 0.845; with Alpelisib + Foretinib (first compound 0.4 µM), 1.05; with Alpelisib + Foretinib (first compound 1.265 µM), 1.07; with Alpelisib + Foretinib (first compound 4 µM), 0.833.

As for NCI-H647, the relative viability with Vemurafenib + Pictilisib (first compound 0.03162 µM) came out at 0.343; in the experiment with Vemurafenib + Pictilisib (first compound 0.1 µM) it was 0.39; with Vemurafenib + Pictilisib (first compound 1 µM), 0.434; with Vemurafenib + Pemetrexed (first compound 0.03162 µM), 0.164; in the experiment with Vemurafenib + Pemetrexed (first compound 0.1 µM) it was 0.174; with Vemurafenib + Pemetrexed (first compound 0.3162 µM), 0.169. In addition, the relative viability is 0.198 in the experiment with Vemurafenib + Pemetrexed (first compound 1 µM); 0.153 with OSI-027 + Luminespib (first compound 0.01 µM); 0.146 in the experiment with OSI-027 + Luminespib (first compound 0.03162 µM); 0.145 in the experiment with OSI-027 + Luminespib (first compound 0.1 µM); 0.149 in the experiment with OSI-027 + Luminespib (first compound 0.3162 µM); 0.0965 with OSI-027 + Luminespib (first compound 1 µM). Besides, the relative viability with Alpelisib + Foretinib (first compound 0.04 µM) was found to be 1.12; with Alpelisib + Foretinib (first compound 0.1265 µM), 1.14; with Alpelisib + Foretinib (first compound 0.4 µM) it was 1.33; with Alpelisib + Foretinib (first compound 1.265 µM), 0.837; in the experiment with Alpelisib + Foretinib (first compound 4 µM), 1.24.

Regarding BEN, the relative viability with Vemurafenib + Pictilisib (first compound 0.03162 µM) stood at 0.529; with Vemurafenib + Pictilisib (first compound 0.1 µM), 0.593; in the experiment with Vemurafenib + Pictilisib (first compound 0.3162 µM) it was 0.358; with Vemurafenib + Pictilisib (first compound 1 µM) it was 0.431; in the experiment with Vemurafenib + Pemetrexed (first compound 0.03162 µM) it was 0.627; in the experiment with Vemurafenib + Pemetrexed (first compound 0.1 µM) it was 0.832. For the same cell line, the relative viability with Vemurafenib + Pemetrexed (first compound 0.3162 µM) came out at 0.445; in the experiment with Vemurafenib + Pemetrexed (first compound 1 µM), 0.619; with OSI-027 + Luminespib (first compound 0.01 µM), 0.327; with OSI-027 + Luminespib (first compound 0.03162 µM), 0.467; with OSI-027 + Luminespib (first compound 0.1 µM), 0.307; with OSI-027 + Luminespib (first compound 0.3162 µM), 0.187. The relative viability with OSI-027 + Luminespib (first compound 1 µM) came out at 0.221; in the experiment with Alpelisib + Foretinib (first compound 0.04 µM) it was 0.792; in the experiment with Alpelisib + Foretinib (first compound 0.1265 µM), 0.401; with Alpelisib + Foretinib (first compound 0.4 µM), 0.732; with Alpelisib + Foretinib (first compound 1.265 µM), 0.737; in the experiment with Alpelisib + Foretinib (first compound 4 µM), 0.521.

Consider NCI-H1944, for which the relative viability stood at 0.318 in the experiment with Vemurafenib + Pictilisib (first compound 0.03162 µM); 0.326 with Vemurafenib + Pictilisib (first compound 0.1 µM); 0.331 in the experiment with Vemurafenib + Pictilisib (first compound 0.3162 µM); 0.307 with Vemurafenib + Pictilisib (first compound 1 µM); 0.596 in the experiment with Vemurafenib + Pemetrexed (first compound 0.03162 µM); 0.564 with Vemurafenib + Pemetrexed (first compound 0.3162 µM). Besides, the relative viability with Vemurafenib + Pemetrexed (first compound 1 µM) turned out to be 0.569; with OSI-027 + Luminespib (first compound 0.01 µM), 0.856; with OSI-027 + Luminespib (first compound 0.03162 µM), 0.82; in the experiment with OSI-027 + Luminespib (first compound 0.1 µM), 0.537; with OSI-027 + Luminespib (first compound 0.3162 µM), 0.534; with OSI-027 + Luminespib (first compound 1 µM), 0.273. The relative viability was 0.786 in the experiment with Alpelisib + Foretinib (first compound 0.04 µM); 0.96 with Alpelisib + Foretinib (first compound 0.1265 µM); 0.881 with Alpelisib + Foretinib (first compound 0.4 µM); 0.581 with Alpelisib + Foretinib (first compound 1.265 µM); 0.43 with Alpelisib + Foretinib (first compound 4 µM).

As to NCI-H1395, the relative viability with Vemurafenib + Pictilisib (first compound 0.03162 µM) came to 0.672; with Vemurafenib + Pictilisib (first compound 0.1 µM) it was 0.613; with Vemurafenib + Pictilisib (first compound 1 µM), 0.521; in the experiment with Vemurafenib + Pemetrexed (first compound 0.03162 µM) it was 0.679; with Vemurafenib + Pemetrexed (first compound 0.1 µM), 0.744; in the experiment with Vemurafenib + Pemetrexed (first compound 0.3162 µM), 0.757. Also, the relative viability in the experiment with Vemurafenib + Pemetrexed (first compound 1 µM) was determined as 0.814; with OSI-027 + Luminespib (first compound 0.01 µM), 0.717; with OSI-027 + Luminespib (first compound 0.03162 µM), 0.556; with OSI-027 + Luminespib (first compound 0.1 µM) it was 0.621; in the experiment with OSI-027 + Luminespib (first compound 0.3162 µM) it was 0.546; with OSI-027 + Luminespib (first compound 1 µM), 0.439. Besides, the relative viability with Alpelisib + Foretinib (first compound 0.04 µM) came out at 0.889; in the experiment with Alpelisib + Foretinib (first compound 0.1265 µM) it was 1.04; in the experiment with Alpelisib + Foretinib (first compound 0.4 µM), 1.01; with Alpelisib + Foretinib (first compound 1.265 µM) it was 0.897; with Alpelisib + Foretinib (first compound 4 µM), 0.988.
